From ChEMBL document CHEMBL4483862, “Open-source discovery of chemical leads for next-generation chemoprotective antimalarials” (2018)

Test system: Plasmodium berghei
Assay: Luciferase/luciferin-expressing antifolate-resistant parasites were used to infect a culture of HepG2 cells that were pre-incubated with compounds. Infected hepatocytes emit light due to the luciferase reaction. Assay results are presented as the percent inhibition of light emission compared to control. […]
Type: functional
Settings: sporozoite; for IC90: read-out: LUCIFERASE INFECTION ASSAY - IC90
[1] = read-out: LUCIFERASE INFECTION ASSAY - IC50

SMILES | IC90 | further results
Cc1cccc(CNc2nc3cnc(Nc4cccc(O)c4)cc3n2C)c1 | > 10 µM | IC50 (FFLUC_HILL_SLOPE 6.96, FFLUC_R_SQUARED 0.0526, HEPG2TOX_HILL_SLOPE 13.6, HEPG2TOX_R_SQUARED 0.973, PBLUC_HILL_SLOPE 10.5, PBLUC_R_SQUARED 0.188, read-out: LUCIFERASE INFECTION ASSAY - IC50): 8.85 µM
O=C(Nc1ncc(Cc2cc(F)cc(F)c2)s1)c1ccc2nc[nH]c2c1 | 6.19 µM | IC50 [1]: 2.9 µM
Cn1nnnc1Sc1ccc([N+](=O)[O-])c2cnccc12 | 3.42 µM | IC50 (HEPG2TOX_HILL_SLOPE 3.78, HEPG2TOX_R_SQUARED 0.957, PBLUC_HILL_SLOPE 12.7, PBLUC_R_SQUARED 0.328, read-out: LUCIFERASE INFECTION ASSAY - IC50): 2.88 µM
CNC(=O)c1cccc(-c2ccc3ncc(-c4ccc(NC(C)=O)cc4)n3n2)c1 | 2.63 µM | IC50 (HEPG2TOX_HILL_SLOPE 1.21, HEPG2TOX_R_SQUARED 0.751, PBLUC_HILL_SLOPE 4.52, PBLUC_R_SQUARED 0.725, read-out: LUCIFERASE INFECTION ASSAY - IC50): 1.62 µM
NC(COCc1ccccc1)c1csc(NC(=O)Nc2ccccc2-c2ccccc2)n1 (stereo not given) | 5.31 µM | IC50 (PBLUC_HILL_SLOPE 5.09, PBLUC_R_SQUARED 0.778, read-out: LUCIFERASE INFECTION ASSAY - IC50): 3.45 µM
Cc1cc(C(=O)COC(=O)/C=C/c2cn(C)c(=O)n(C)c2=O)c(C)n1CCc1ccc(Cl)cc1 | > 10 µM | IC50 (FFLUC_HILL_SLOPE 11.7, FFLUC_R_SQUARED 0.825, read-out: LUCIFERASE INFECTION ASSAY - IC50): > 10 µM
Cn1cnc2cnc(Nc3ccc(F)c(Cl)c3)cc21 | > 10 µM | IC50 (HEPG2TOX_HILL_SLOPE 2.92, HEPG2TOX_R_SQUARED 0.693, read-out: LUCIFERASE INFECTION ASSAY - IC50): > 10 µM
CCOC(=O)c1c(C)[nH]c(C)c1C(=O)COC(=O)c1c(OC)cccc1OC | > 10 µM | IC50 [1]: > 10 µM
Cc1cc(/C=C(\C#N)c2nc3ccccc3[nH]2)c(C)n1-c1cc(C(F)(F)F)ccc1Cl | 5.02 µM | IC50 (HEPG2TOX_HILL_SLOPE 9.28, HEPG2TOX_R_SQUARED 0.884, PBLUC_HILL_SLOPE 1.82, PBLUC_R_SQUARED 0.761, read-out: LUCIFERASE INFECTION ASSAY - IC50): 1.5 µM
Cc1cn2c(/C=C/c3nc4cc(Cl)ccc4o3)c(C)nc2s1 | > 10 µM | IC50 [1]: > 10 µM
COc1cc(-c2ccc3ncc(-c4cccc(Cl)c4)n3n2)cc(OC)c1OC | 5.69 µM | IC50 (HEPG2TOX_HILL_SLOPE 9.46, HEPG2TOX_R_SQUARED 0.786, PBLUC_HILL_SLOPE 7.92, PBLUC_R_SQUARED 0.391, read-out: LUCIFERASE INFECTION ASSAY - IC50): 4.31 µM
NC(Cc1ccc(F)cc1)c1csc(Nc2nncc3ccccc23)n1 (stereo not given) | > 9.03 µM | IC50 [1]: > 9.03 µM
CC(C)n1ncc2cc(C(=O)Nc3nc4c(s3)CCCC4)cnc21 | 0.68 µM | IC50 (FFLUC_HILL_SLOPE 1.2, FFLUC_R_SQUARED 0.643, HEPG2TOX_HILL_SLOPE 0.617, HEPG2TOX_R_SQUARED 0.917, PBLUC_HILL_SLOPE 0.702, PBLUC_R_SQUARED 0.926, read-out: LUCIFERASE INFECTION ASSAY - IC50): 0.0298 µM
COc1ccc(-c2cnc3cnc(-c4cccc(NC(C)=O)c4)cn23)cc1 | > 9.21 µM | IC50 (PBLUC_HILL_SLOPE 2.77, PBLUC_R_SQUARED 0.737, read-out: LUCIFERASE INFECTION ASSAY - IC50): 4.22 µM
COc1cc(Nc2ncc3c(n2)CCN(C(=O)Nc2ccc(OC(F)(F)F)cc2)C3)cc(OC)c1OC | > 6.35 µM | IC50 (HEPG2TOX_HILL_SLOPE 2.89, HEPG2TOX_R_SQUARED 0.596, read-out: LUCIFERASE INFECTION ASSAY - IC50): > 6.35 µM
N#CCCNS(=O)(=O)c1cccc(C(=O)Nc2ccc(Nc3ccccc3)cc2)c1 | 4.83 µM | IC50 (HEPG2TOX_HILL_SLOPE 1.27, HEPG2TOX_R_SQUARED 0.641, PBLUC_HILL_SLOPE 2.13, PBLUC_R_SQUARED 0.388, read-out: LUCIFERASE INFECTION ASSAY - IC50): 1.72 µM
Cc1noc(-c2ccc(C(F)(F)F)cc2)c1NC(=O)Nc1cc(Cl)cc(Cl)c1 | 1.05 µM | IC50 [1]: 0.395 µM
O=[N+]([O-])c1ccc(Nc2nc3ccc(Cl)cc3o2)cc1 | > 10 µM | IC50 [1]: > 10 µM
COc1ccc(OC)c(CCNc2nc3cnc(-c4cccc(NS(C)(=O)=O)c4)cc3n2C)c1 | > 10 µM | IC50 [1]: > 10 µM
c1ccn2c(Sc3ncnc4ccsc34)nnc2c1 | > 10 µM | IC50 (HEPG2TOX_HILL_SLOPE 1.03, HEPG2TOX_R_SQUARED 0.779, PBLUC_HILL_SLOPE 16.5, PBLUC_R_SQUARED 0.198, read-out: LUCIFERASE INFECTION ASSAY - IC50): 9.21 µM

SMILES | IC90 | further results
CN(C)c1cccc(NCC2(c3ccnc(-c4ccccc4Cl)c3)CC2)c1 | > 10 µM | IC50 [1]: > 10 µM
Cc1c(-c2ccccc2)sc2ncnc(NCc3nnc4ccccn34)c12 | > 10 µM | IC50 (HEPG2TOX_HILL_SLOPE 2.41, HEPG2TOX_R_SQUARED 0.925, PBLUC_HILL_SLOPE 1.56, PBLUC_R_SQUARED 0.71, read-out: LUCIFERASE INFECTION ASSAY - IC50): 2.86 µM
O=C(Nc1ccc2c(c1)OCO2)C1CCN(Cn2nc3n(c2=O)CCCCC3)CC1 | > 10 µM | IC50 [1]: > 10 µM
O=C(CSc1ccccc1)Nc1nc2ccccn2c1C(=O)NC1CCCC1 | > 8.37 µM | IC50 (PBLUC_HILL_SLOPE 8.28, PBLUC_R_SQUARED 0.442, read-out: LUCIFERASE INFECTION ASSAY - IC50): 7.37 µM
CC(C)c1ccc(CN2CCC2(C)C(=O)Nc2cnc3ccccc3c2)cc1 (stereo not given) | 3.79 µM | IC50 (PBLUC_HILL_SLOPE 15.4, PBLUC_R_SQUARED 0.671, read-out: LUCIFERASE INFECTION ASSAY - IC50): 3.29 µM
CCOc1cc(C(=O)Oc2cccc(Cl)c2Cl)cc(OCC)c1OCC | > 10 µM | IC50 (FFLUC_HILL_SLOPE 1.16, FFLUC_R_SQUARED 0.617, read-out: LUCIFERASE INFECTION ASSAY - IC50): > 10 µM
Cc1ccc(C)c(-n2cc(-c3ccc(Cl)cc3)nc2SCC(=O)c2ccc(Cl)c(Cl)c2)c1 | > 10 µM | IC50 (FFLUC_HILL_SLOPE 12.4, FFLUC_R_SQUARED 0.889, HEPG2TOX_HILL_SLOPE 8.6, HEPG2TOX_R_SQUARED 0.032, read-out: LUCIFERASE INFECTION ASSAY - IC50): > 10 µM
N#Cc1ccsc1NC(=O)COC(=O)c1c2c(nc3ccccc13)/C(=C/c1cccc([N+](=O)[O-])c1)CCC2 | > 10 µM | IC50 (HEPG2TOX_HILL_SLOPE 2.36, HEPG2TOX_R_SQUARED 0.622, PBLUC_HILL_SLOPE 3.04, PBLUC_R_SQUARED 0.408, read-out: LUCIFERASE INFECTION ASSAY - IC50): 7.71 µM
CSc1nc2ccc(NC(=O)c3cn4ccccc4n3)cc2s1 | > 10 µM | IC50 [1]: 3.18 µM
Cc1cc(C)c(Nc2nc(-c3c(-c4ccccc4)noc3C)cs2)c(C)c1 | 5.3 µM | IC50 (FFLUC_HILL_SLOPE 43.6, FFLUC_R_SQUARED 0.276, HEPG2TOX_HILL_SLOPE 3.1, HEPG2TOX_R_SQUARED 0.635, PBLUC_HILL_SLOPE 7.7, PBLUC_R_SQUARED 0.763, read-out: LUCIFERASE INFECTION ASSAY - IC50): 3.98 µM
COc1ccc2[nH]cc(CCNC(=O)c3ccc(-c4cccc(NC(C)=O)c4)nc3NCc3cccnc3)c2c1 | 5.13 µM | IC50 (FFLUC_HILL_SLOPE 1.54, FFLUC_R_SQUARED 0.292, HEPG2TOX_HILL_SLOPE 0.912, HEPG2TOX_R_SQUARED 0.95, PBLUC_HILL_SLOPE 1.88, PBLUC_R_SQUARED 0.271, read-out: LUCIFERASE INFECTION ASSAY - IC50): 1.59 µM
O=S(=O)(c1cc(C(F)(F)F)cc(C(F)(F)F)c1)N1CCC(C(c2ccccc2)c2ccccc2)CC1 | > 6.26 µM | IC50 (FFLUC_HILL_SLOPE 21.5, FFLUC_R_SQUARED 0.833, read-out: LUCIFERASE INFECTION ASSAY - IC50): > 6.26 µM
COc1cc([N+](=O)[O-])ccc1NC(=O)COC(=O)c1c(C)nn(Cc2ccc(Cl)cc2Cl)c1Cl | > 10 µM | IC50 (FFLUC_HILL_SLOPE 15, FFLUC_R_SQUARED 0.28, read-out: LUCIFERASE INFECTION ASSAY - IC50): > 10 µM
OCc1ccc(-c2cnc3cnc(-c4cccc(Cl)c4)cn23)cc1 | > 9.83 µM | IC50 (PBLUC_HILL_SLOPE 16, PBLUC_R_SQUARED 0.272, read-out: LUCIFERASE INFECTION ASSAY - IC50): 9.56 µM
CC(NCc1ccc(N(C)CCO)cc1)c1ccc(-c2ccccc2)cc1 (stereo not given) | > 10 µM | IC50 (PBLUC_HILL_SLOPE 1.73, PBLUC_R_SQUARED 0.432, read-out: LUCIFERASE INFECTION ASSAY - IC50): 8 µM
Cn1cnnc1Sc1ccc(/C=C/c2nc3ccccc3[nH]2)cc1[N+](=O)[O-] | 3.92 µM | IC50 (PBLUC_HILL_SLOPE 13.5, PBLUC_R_SQUARED 0.706, read-out: LUCIFERASE INFECTION ASSAY - IC50): 3.33 µM
CCc1nnc(Sc2ncnc3ccsc23)[nH]1 | > 10 µM | IC50 [1]: > 10 µM
Cc1cc(C(=O)C(C)OC(=O)CCn2cnc3c(cnn3C)c2=O)c(C)n1-c1ccc(Cl)cc1 (stereo not given) | > 10 µM | IC50 (HEPG2TOX_HILL_SLOPE 12.8, HEPG2TOX_R_SQUARED 0.861, read-out: LUCIFERASE INFECTION ASSAY - IC50): > 10 µM
CCc1cccc(CC)c1N(C(C)=O)c1nc(/C=C/C(=O)c2cc3ccccc3o2)cs1 | 6.49 µM | IC50 (FFLUC_HILL_SLOPE 3.93, FFLUC_R_SQUARED 0.771, PBLUC_HILL_SLOPE 5.3, PBLUC_R_SQUARED 0.865, read-out: LUCIFERASE INFECTION ASSAY - IC50): 4.29 µM
CCN(c1ccc(NC(=O)CCc2ccccc2Cl)cc1)C(C)C | > 10 µM | IC50 (HEPG2TOX_HILL_SLOPE 1.73, HEPG2TOX_R_SQUARED 0.92, read-out: LUCIFERASE INFECTION ASSAY - IC50): > 10 µM
